Data on six molecules can be found in article PMC12880737 (Journal of medicinal chemistry, 2025).

Assay [1] addresses T1, GAS41 YEATS domain (Homo sapiens, UniProt O95619). The experiment in a line: Fluorescence polarization competition assay with H3K23crK27cr-FAM probe. It counts as binding.
Target sequence in this assay (O95619 1-148): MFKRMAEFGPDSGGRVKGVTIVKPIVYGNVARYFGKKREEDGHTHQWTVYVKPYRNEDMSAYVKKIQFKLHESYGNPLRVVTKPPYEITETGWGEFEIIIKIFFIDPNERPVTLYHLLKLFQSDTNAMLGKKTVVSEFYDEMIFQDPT
For assay [2], the target named is his6-GAS41 YEATS (13-158) (Homo sapiens, UniProt O95619). The experiment in a line: AlphaLISA competition assay with 21-biot probe.
Assay [3] has as its target T1, GAS41 YEATS domain. Nature of the assay: 1H-15N HSQC NMR binding experiments. The following applies: 50 μM 15N GAS41 YEATS, 100 μM compound.
Target sequence in this assay (O95619 18-190): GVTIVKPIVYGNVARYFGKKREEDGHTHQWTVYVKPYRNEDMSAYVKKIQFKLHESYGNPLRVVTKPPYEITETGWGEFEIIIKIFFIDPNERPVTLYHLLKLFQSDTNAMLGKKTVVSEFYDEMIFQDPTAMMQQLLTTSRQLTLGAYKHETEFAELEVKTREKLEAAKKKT
In assay [4] the target is NanoLUC-GAS41 and Halo-H3.3 (Homo sapiens, UniProt O95619). Nature of the assay: GAS41 NanoBRET assay in HEK293T cells. It counts as cell-based.
Sequence of NanoLUC-GAS41 and Halo-H3.3 (O95619 whole entry): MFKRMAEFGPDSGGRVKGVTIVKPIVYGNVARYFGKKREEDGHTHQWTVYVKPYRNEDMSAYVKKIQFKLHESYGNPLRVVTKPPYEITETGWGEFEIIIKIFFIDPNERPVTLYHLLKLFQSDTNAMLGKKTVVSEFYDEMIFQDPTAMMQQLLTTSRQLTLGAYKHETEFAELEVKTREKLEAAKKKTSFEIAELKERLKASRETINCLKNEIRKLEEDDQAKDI
In a further assay the test system is CDKN1A. The experiment in a line: CDKN1A gene expression by RT-qPCR in H1299 cells. The following applies: 7 days. It counts as cell-based.
Assay [5] concerns the target NanoLuc-tagged BRD4-BD1 and Halo-tagged histone H3.3 (Homo sapiens, UniProt O60885). The experiment in a line: BRD4-BD1 NanoBRET assay. It counts as cell-based. Conditions: Figure S3.
A further assay concerns H1299 cells. Nature of the assay: Wound healing assay. In kind it is cell-based. The following applies: H1299, 24 h.

Sequence of his6-GAS41 YEATS (13-158) (O95619 13-158): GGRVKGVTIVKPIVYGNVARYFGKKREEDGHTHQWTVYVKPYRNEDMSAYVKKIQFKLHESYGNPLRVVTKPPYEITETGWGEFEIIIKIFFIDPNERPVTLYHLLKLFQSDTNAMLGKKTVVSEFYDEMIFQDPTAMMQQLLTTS

Regarding `O=C(NCc1ccc(-c2cnc(C3CN(C(=O)c4ccc(NC(=O)[C@@H]5CCCN5)s4)C3)s2)cc1)c1ccccc1` [Compound 31, (S)-N-(5-(3-(5-(4-(benzamidomethyl)phenyl)thiazol-2-yl)azetidine-1-carbonyl)thiophen-2-yl)pyrrolidine-2-carboxamide], the IC50 stood at 1.1 ± 0.01 µM on GAS41 YEATS domain [1] and 0.2 ± 0.08 µM in assay [2].

`O=C(NCc1ccc(-c2cnc(C3CN(C(=O)c4ccc(NC(=O)[C@@H]5CCCN5)s4)C3)s2)cc1)C1CCCC1` [Compound 30, (S)-N-(5-(3-(5-(4-(cyclopentanecarboxamidomethyl)phenyl)thiazol-2-yl)azetidine-1-carbonyl)thiophen-2-yl)pyrrolidine-2-carboxamide]: the IC50 is 1.3 ± 0.4 µM at GAS41 YEATS domain [1] and 0.6 ± 0.08 µM in assay [2].

`CCC(=O)NCc1ccc(-c2cnc(C3CN(C(=O)c4cnc(NC(=O)[C@@H]5CC(C)(C)CN5)s4)C3)s2)c2ccccc12` [Compound 40, (S)-4,4-dimethyl-N-(5-(3-(5-(4-(propionamidomethyl)naphthalen-1-yl)thiazol-2-yl)azetidine-1-carbonyl)thiazol-2-yl)pyrrolidine-2-carboxamide]: the figures for the IC50 (on GAS41 YEATS domain [1]; in assay [4]; in assay [2]) were 118 ± 7.7 µM, more than 25 µM and more than 50 µM, respectively. For the same molecule, the “amide perturbations in 1H-15N HSQC NMR” value on GAS41 YEATS domain [3] is listed as “no perturbations”. The “levels of CDKN1A” value with CDKN1A is reported as “but not DLG-41nc strongly enhanced levels of CDKN1A”.

As to `Cc1sc2c(c1C)C(c1ccc(Cl)cc1)=N[C@@H](CC(=O)OC(C)(C)C)c1nnc(C)n1-2` [JQ1, reference compound], the “activity in GAS41 BRET assay” value in assay [4] (Figure S3) is on record as “no activity”.

As for `CCC(=O)NCc1ccc(-c2cnc(C3CN(C(=O)c4ccc(NC(=O)[C@@H]5CC(C)(C)CN5)s4)C3)s2)c2ccccc12` [Compound 39, (S)-4,4-dimethyl-N-(5-(3-(5-(4-(propionamidomethyl)naphthalen-1-yl)thiazol-2-yl)azetidine-1-carbonyl)thiophen-2-yl)pyrrolidine-2-carboxamide], in assay [5], the “activity in BRD4-BD1 NanoBRET assay” value is “no activity”. Moreover, the scratch healing result with H1299 cells is on record as “slowed scratch healing”.

In the case of `CC(=O)NCc1ccc(-c2cnc(C3CN(C(=O)c4ccc(NC(=O)[C@@H]5CCCN5)s4)C3)s2)c(Cl)c1` [Compound 35, (S)-N-(5-(3-(5-(4-(acetamidomethyl)-2-chlorophenyl)thiazol-2-yl)azetidine-1-carbonyl)thiophen-2-yl)pyrrolidine-2-carboxamide], the half-inhibitory concentration (IC50) came out at 3.4 ± 0.13 µM on GAS41 YEATS domain [1] and 1.4 ± 0.33 µM in assay [2].
